According to PubChem BioAssay (NCI):
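Cultured in 96-well plates, cells were exposed to test compound for 48 hours across five concentrations. GI50 = concentration required for 50% inhibition of growth. At the TGI there is no net growth.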

Legend:
Assay in all cases: inhibition of tumour cell growth, NCI panel, 48 h
[1] = system: RXF 393 renal
[2] = system: UACC-257 melanoma
[3] = system: SK-MEL-5 melanoma
[4] = system: HCT-116 colon
[5] = system: KM12 colon
[6] = system: MCF7 breast
[7] = system: LOX IMVI melanoma
[8] = system: 786-0 renal
[9] = system: HCC-2998 colon
[10] = system: COLO 205 colon
[11] = system: SF-268 CNS
[12] = system: OVCAR-3 ovarian
[13] = system: HCT-15 colon
[14] = system: HS 578T breast
[15] = system: NCI-H23 lung
[16] = system: BT-549 breast
[17] = system: MDA-MB-231 breast
[18] = system: DU-145 prostate
[19] = system: NCI-H460 lung
[20] = system: UO-31 renal
[21] = system: A549 NSCLC
[22] = system: NCI/ADR-RES ovarian
[23] = system: ACHN renal
[24] = system: SNB-19 CNS
[25] = system: HOP-62 NSCLC
[26] = system: UACC-62 melanoma
[27] = system: SF-295 CNS
[28] = system: M14 melanoma
[29] = system: SK-OV-3 ovarian
[30] = system: NCI-H226 lung
[31] = system: CAKI-1 renal
[32] = system: OVCAR-5 ovarian
[33] = system: PC-3 prostate
[34] = system: MALME-3M melanoma
[35] = system: SF-539 CNS
[36] = system: EKVX NSCLC
[37] = system: MDA-N
[38] = system: IGROV1 ovarian
[39] = system: NCI-H522 lung
[40] = system: TK-10 renal
[41] = system: HOP-92 NSCLC
[42] = system: SNB-75 CNS
[43] = system: MOLT-4 leukemia
[44] = system: HT29 colon
[45] = system: CCRF-CEM leukemia
[46] = system: A498 renal
[47] = system: SW-620 colon
[48] = system: MDA-MB-435
[49] = system: SN12C renal
[50] = system: T-47D breast
[51] = system: HL-60(TB) leukemia
[52] = system: RPMI-8226 leukemia
[53] = system: OVCAR-8 ovarian
[54] = system: OVCAR-4 ovarian
[55] = system: SR leukemia
[56] = system: SK-MEL-28 melanoma
[57] = system: U251 CNS
[58] = system: K-562 leukemia
[59] = system: SK-MEL-2 melanoma

For NC(N)=NC(P(=O)(O)O)P(=O)(O)O, the TGI [1] was > 100 µM, the TGI [2] was > 100 µM and the TGI [3] was > 100 µM. The TGI [4] was > 100 µM, the TGI [5] was > 100 µM and the TGI [6] was > 100 µM. The TGI [7] was > 100 µM, the TGI [8] was > 100 µM and the TGI [9] was > 100 µM. For the same molecule, the TGI [10] was > 100 µM, the TGI [11] was > 100 µM and the TGI [12] was > 100 µM. The TGI [13] was > 100 µM, the TGI [14] was > 100 µM and the TGI [15] was > 100 µM. The TGI [16] was > 100 µM, the TGI [17] was > 100 µM and the TGI [18] was > 100 µM. For the same molecule, the TGI [19] was > 100 µM, the TGI [20] was > 100 µM and the TGI [21] was > 100 µM. The TGI [22] was > 100 µM, the TGI [23] was > 100 µM and the TGI [24] was > 100 µM. For the same molecule, the TGI [25] was > 100 µM, the TGI [26] was > 100 µM and the TGI [27] was > 100 µM. For the same molecule, the TGI [28] was > 100 µM, the TGI [29] was > 100 µM and the TGI [30] was > 100 µM. For the same molecule, the TGI [31] was > 100 µM, the TGI [32] was > 100 µM and the TGI [33] was > 100 µM. For the same molecule, the TGI [34] was > 100 µM, the TGI [35] was > 100 µM and the TGI [36] was > 100 µM. For the same molecule, the TGI [37] was > 100 µM, the TGI [38] was > 100 µM and the TGI [39] was > 100 µM. The TGI [40] was > 100 µM.
CN(C)c1ccc(/C=C(\C#N)c2nc3ccccc3n2C)cc1 was tested, and the GI50 [1] was 2770 nM, the TGI [1] was > 24.8 µM and the GI50 [2] was 20.2 µM. For the same molecule, the TGI [2] was > 100 µM, the GI50 [3] was 1920 nM and the TGI [3] was 13.6 µM. For the same molecule, the GI50 [4] was 1410 nM, the TGI [4] was > 100 µM and the GI50 [5] was 1590 nM. For the same molecule, the TGI [5] was 18.4 µM, the GI50 [6] was 612 nM and the TGI [6] was > 76 µM. For the same molecule, the GI50 [7] was 5.68 µM, the TGI [7] was > 62.2 µM and the GI50 [8] was 8.77 µM. For the same molecule, the TGI [8] was 99 µM, the GI50 [9] was 4.43 µM and the TGI [9] was 27.7 µM. The GI50 [10] was 1630 nM, the TGI [10] was 9.26 µM and the GI50 [11] was 5.96 µM. The TGI [11] was > 95.1 µM, the GI50 [12] was 1330 nM and the TGI [12] was 3.73 µM. It also gave a GI50 [41] of 5.68 µM, a TGI [41] of 28.9 µM and a GI50 [42] of 2540 nM. For the same molecule, the TGI [42] was > 31.3 µM, the GI50 [43] was 7.03 µM and the TGI [43] was > 38 µM. For the same molecule, the GI50 [44] was 742 nM, the TGI [44] was > 33.3 µM and the GI50 [13] was 1290 nM. For the same molecule, the TGI [13] was > 87.6 µM, the GI50 [14] was 2840 nM and the TGI [14] was > 26.5 µM. The GI50 [15] was 4.51 µM, the TGI [15] was > 88.5 µM and the GI50 [45] was 3.36 µM. For the same molecule, the TGI [45] was 16 µM, the GI50 [16] was 3.4 µM and the TGI [16] was 31.2 µM. It also gave a GI50 [46] of 729 nM, a TGI [46] of 6.82 µM and a GI50 [17] of 5.41 µM. For the same molecule, the TGI [17] was > 100 µM, the GI50 [18] was 2990 nM and the TGI [18] was 13.1 µM. For the same molecule, the GI50 [47] was 921 nM, the TGI [47] was > 60.1 µM and the GI50 [48] was 251 nM. The TGI [48] was 3.13 µM, the GI50 [49] was 11.6 µM and the TGI [49] was > 100 µM. For the same molecule, the GI50 [50] was 3.08 µM, the TGI [50] was 27.2 µM and the GI50 [19] was 3.2 µM. The TGI [19] was 17.9 µM, the GI50 [20] was 6.96 µM and the TGI [20] was > 100 µM. The GI50 [51] was 3.77 µM, the TGI [51] was > 31.4 µM and the GI50 [21] was 4.53 µM. For the same molecule, the TGI [21] was > 100 µM, the GI50 [52] was 2850 nM and the TGI [52] was 14.7 µM. It also gave a GI50 [22] of 1470 nM, a TGI [22] of 11.1 µM and a GI50 [53] of 4.79 µM. For the same molecule, the TGI [53] was > 72.9 µM, the GI50 [54] was 4.22 µM and the TGI [54] was > 21.9 µM. For the same molecule, the GI50 [23] was 11.6 µM, the TGI [23] was > 100 µM and the GI50 [24] was 7.27 µM. For the same molecule, the TGI [24] was > 100 µM, the GI50 [25] was 13.8 µM and the TGI [25] was > 100 µM. The GI50 [26] was 2040 nM, the TGI [26] was 37.2 µM and the GI50 [55] was 279 nM. For the same molecule, the TGI [55] was > 100 µM, the GI50 [56] was 8.8 µM and the TGI [56] was > 78.2 µM. For the same molecule, the GI50 [57] was 3.72 µM, the TGI [57] was > 100 µM and the GI50 [27] was 1900 nM. For the same molecule, the TGI [27] was 16.9 µM, the GI50 [28] was 2420 nM and the TGI [28] was > 64.9 µM. For the same molecule, the GI50 [29] was 4.09 µM, the TGI [29] was 71.3 µM and the GI50 [30] was 9.22 µM. For the same molecule, the TGI [30] was > 81.3 µM, the GI50 [31] was 5.16 µM and the TGI [31] was > 90.6 µM. For the same molecule, the GI50 [32] was 8.49 µM, the TGI [32] was 49.8 µM and the GI50 [33] was 3.91 µM. For the same molecule, the TGI [33] was > 48.8 µM, the GI50 [34] was 6.17 µM and the TGI [34] was 60.6 µM. It also gave a GI50 [35] of 2240 nM, a TGI [35] of 6.94 µM and a GI50 [58] of 249 nM. The TGI [58] was 10.8 µM, the GI50 [36] was 8.65 µM and the TGI [36] was > 100 µM. For the same molecule, the GI50 [38] was 5.13 µM, the TGI [38] was > 100 µM and the GI50 [39] was 1700 nM. The TGI [39] was 16 µM, the GI50 [59] was 3.9 µM and the TGI [59] was 68.5 µM. It also gave a GI50 [40] of 3.24 µM and a TGI [40] of 67.9 µM.
